This is an account of results in US9682928B2 (NeuroPro Therapeutics, Inc., priority 2009, dated 2017).

Data set [1] concerns Male Rj: NMRI mice. Kind of data set: Formalin paw test (late phase) in the mouse. The data set is classed as in vivo. On the procedure:
The method described herein detects analgesic/anti-inflammatory activity, generally used to test compounds for pain relief, in particular diabetic neuropathy or nociceptive neuropathy. See Wheeler-Aceto, et al. (1991) Psychopharmacology 104: 35-44.
Mice were given an intraplantar injection of 5% formalin (25 μl) into the posterior left paw. This treatment induces paw licking in control animals. Mice were briefly observed at 1 minute intervals between 15 and 50 minutes after the injection of formalin and the number of occasions that the mice were observed licking the injected paw was recorded. There were 10 mice per group and the test was performed “blind.”
The experiment included 11 groups. Data was analyzed by comparing treated groups with vehicle control using unpaired Mann-Whitney U tests.
Gabapentin (100 mg/kg i.p.) administered under the same experimental conditions, was used as reference substance. The experiment included several groups. Data was analyzed by comparing treated groups with vehicle control using unpaired Mann-Whitney U tests.

Data set [2] deals with Male CD-1 mice. Kind of data set: Chung (SNL) neuropathic pain study in mice. The following applies: mice, i.p., SNL. It is filed as in vivo, mouse. The source says: Male CD-1 mice (25-35 g, Charles River) were used for all studies. Mice were housed in groups of five in Plexiglas chambers with food and water available ad libitum. All animals were maintained on a 12 hr light/dark cycle (lights on at 7:00 AM) in a temperature- and humidity-controlled animal colony. The health status of the animals used in this study was examined on arrival. Only animals in good health were acclimatized to laboratory conditions and used in the study. The acclimation period to the vivarium was a minimum of 7 days. All animal experiments were performed under an approved protocol in accordance with institutional guidelines and in accordance with the Guide for the Care and Use of Laboratory Animals as adopted and promulgated by the National Institutes of Health.
NTP has provided adequate amounts of NTP-2014 and NTP-2026 along with detailed instructions for preparing injection solutions. Gabapentin (Gallipot, St. Paul, Minn.) was dissolved in physiological saline. Injections were made using a 1-mL syringe with a 30-gauge needle at a volume of 10 ml/kg body weight. Animal body weights were measured prior to surgery and then on the morning of Day 7 (post-SNL testing). For i.p. drug administration, each mouse was firmly grasped by the nape of the neck and the tail was tucked between the last two fingers and palm of the technician's hand. The back of the mouse iwasarched slightly backwards exposing the abdominal region. The needle was inserted through the skin and abdominal musculature into the peritoneal cavity just off of the midline. Mice are immediately returned to the testing cage until behavioral testing.
NTP2026 (56, 100 and 180 mg/kg, i.p.); NTP 2014 (32, 56 and 100 mg/kg, i.p.); Gabapentin (100 mg/kg, i.p.); Vehicle Control (10% TPGS in benzoate buffer, i.p.).
SNL surgeries were performed based on the procedures described for rats (Kim and Chung, 1992) and modified for mice (Wang et al., 2001). Anesthesia was maintained with 0.5% halothane in O2 and body temperature was maintained using a heated water blanket. After surgical preparation of the mice, a 1-cm paraspinal incision was made at the level L4-S2. The L5 and L6 spinal nerves were exposed and tightly ligated using a 4-0 silk suture. The ligation was made distal to the dorsal root ganglion but before the fibers joined the sciatic nerve. The incisions were then closed, and animals are allowed to recover. […] Mechanical thresholds were determined by measuring the paw withdrawal threshold to probing with a series of calibrated von Frey filaments as described below.
Non-noxious sensory thresholds of the mice were determined by paw withdrawal […] to probing with a series of calibrated (0.02-2.34 gm on a logarithmic scale) von Frey filaments (“up and down” method) according to Chaplan et al. (1994) and analyzed using a Dixon (1980) nonparametric test. Results are expressed as the mean withdrawal thresholds. Baseline latencies/thresholds were determined prior to surgery, on the morning of Day 7, and then between 20-60 minutes post dosing with the test drugs. The post-drug time corresponds to the time of maximal activity for these compounds in the tail-flick assay.

Data set [3] relates to male Sprague Dawley rats. Kind of data set: Taxol-induced peripheral neuropathy (rat), mechanical allodynia (von Frey). The data set is classed as in vivo. The following applies: gabapentin 100 mg/kg. The source says:
In this study, an animal model of Taxol-induced sensory neuropathy was employed to evaluate the effects of the sponsor's test compounds, for response to tactile sensitivity using von Frey test of mechanical allodynia. […] Therefore, Taxol-induced mechanical allodynia was employed as the measured behavioral endpoint.
The test substance was homogenized and dispersed using a mortar and a pestle in 0.2% hydroxypropylmethylcellulose (HPMC) in physiological saline, which served as the vehicle. Test articles were administered intraperitoneally in dose volumes of 10 mL/kg body weight. Preparations were made freshly for each day of administration.
Prior to test article NTP-2024 and vehicle control group administration, rats were pretreated at 30 minutes and again at 10 minutes prior to test article administration with a general metabolic inhibitor, piperonyl butoxide (150 mg/kg i.p.) in DMSO, at a volume of 1 mL/kg.
The reference article, Gabapentin, was formulated in saline to a concentration of 100 mg/mL and delivered […] at a dose volume of 1 mL/kg body weight (for a dosing concentration of 100 mg/kg).
All animals were administered Taxol, 2 mg/kg, IP at a dose volume of 1 mL/kg, on Days 1, 3, 5 and 7.
On Day 32, all animals received a single intraperitoneal injection of test article or vehicle according to Tables 1 and 2. For group 1 (vehicle), rats were pre-treated with Piperonyl butoxide (150 mg/kg IP, dose volume of 1 mL/kg) at 30 minutes and again at 10 minutes prior to vehicle administration. Four animals in group 3 (NTP-2024) were also pre-treated with Piperonyl butoxide (150 mg/kg IP, dose volume of 1 mL/kg) at 30 minutes and again at 10 minutes prior to vehicle administration. Animals in Groups 2, 3, 4, & 5 were pre-treated with Saline (dose volume of 1 mL/kg, IP) at 30 minutes and again at 10 minutes prior to test article administration. With the exception of animals in group 2, the animals received an IP injection of vehicle or test article 30 min prior to mechanical allodynia testing. Animals were dosed at a volume of 10 mL/kg.
Animals in group 2, received an IP injection of Gabapentin 90 minutes prior to mechanical allodynia testing. Animals were dosed at a volume of 1 mL/kg.
All animals underwent von Frey testing for mechanical allodynia. On testing days, the animals were returned to the chambers and allowed approximately 15 minutes to explore their surroundings prior to testing. A series of filaments were applied to the left hind paw. A 2.0 g filament was first applied to the plantar surface, if the animal responded to the filament (by lifting its paw) then the next smaller filament was applied. […] This is repeated in an “Up down” method for four responses after the first initial change in response.
The original study design used thermal hyperalgesia as the main parameter for testing the ability of the test compounds to ameliorate the pain associated with the Taxol injection. The treatment inclusion was set at a 20% drop from baseline values as determined on Day 28. […] The study design was amended to use mechanical allodynia as the testing parameter. […] This changed the testing days from Day 28 to Day 31 for allodynia confirmation and Day 29 to Day 32 for testing the article efficacy. Additional animals were received to complete the group size designation. These animals were tested for mechanical allodynia only. The study was then further amended to remove the piperonyl butoxide as a pre-treatment for Group 3 (NTP-2024). […] Because this study was conducted in two portions, four (4) animals from Group 3 received the metabolic inhibitor and five (5) received Saline as a pre-treatment.
The group mean results were analyzed versus the vehicle control group using a two way ANOVA, followed by a Bonferroni post-hoc test. Individual groups were tested pre and post dose using a paired t-test.

The test system of data set [4] is Male CD-1 mice. Kind of data set: Chung (SNL) neuropathic pain study in mice. It is filed as in vivo, mouse. The following applies: high dose group (180 mg/kg NTP-2014; 100 mg/kg NTP-2026; gabapentin 100 mg/kg, i.p.).

“Also recorded” adds a separate entry of the source.

As for `NCC1(CC(=O)O)CCCCC1` [Gabapentin, reference compound], in data set [1] (gabapentin 100 mg/kg (584 μmol/kg)), the “Licking Score % Pain Decrease” value is listed as 63%. The “Licking Score (15 to 50 minutes post-formalin injection) % Change from Control” value in data set [1] (gabapentin 100 mg/kg i.p. (584 μmol/kg)) is reported as −63%. Also, in data set [2], the “Reversal of tactile hypersensitivity” value is listed as “dose-dependent activity”. Further, the “Reversal of mechanical allodynia” value in data set [3] is recorded as “able to mitigate the mechanical allodynia; also recorded: significantly reverse”. Further, the Sedation result in data set [4] is “minor sedation and incoordination”.
